Results reported in the Deep4Chem optical property database.
One block for each molecule: values may come before it.

Assay: solvent given as SMILES

emission maximum (in ClCCl): 529 nm
SMILES: CC(C)(C)c1ccc2c(c1)c1cc(C(C)(C)C)ccc1n2-c1ccc(N(c2ccc(-c3ccc(-c4ccc(-c5ccc(-c6ccc(-c7ccc(N(c8ccc(-n9c%10ccc(C(C)(C)C)cc%10c%10cc(C(C)(C)C)ccc%109)cc8)c8ccc(-n9c%10ccc(C(C)(C)C)cc%10c%10cc(C(C)(C)C)ccc%109)cc8)cc7)s6)s5)s4)s3)cc2)c2ccc(-n3c4ccc(C(C)(C)C)cc4c4cc(C(C)(C)C)ccc43)cc2)cc1

emission maximum (in CC1CCCO1): 483 nm
SMILES: O=c1cc2cc(O)c3cc(O)cc4ccc(o1)c2c43

SMILES: CCCC1=Cc2nc1ccc1[nH]c(cc1CCO)c1nc(ccc3[nH]c2cc3CCC)C(CCO)=C1
emission maximum (in Cc1ccccc1): 642 nm

SMILES: COc1ccc(N(c2ccccc2)c2ccc(OC)cc2)cc1
emission maximum (in Cc1ccccc1): 387 nm

emission maximum (in CC#N): 475 nm
emission maximum (in CO): 492 nm
emission maximum (in ClCCl): 474 nm
SMILES: O=C1c2ccccc2-c2c(-c3cc(Br)ccc3O)[nH]c(=O)n21

emission maximum (in ClCCl): 496 nm
SMILES: CCCCCCn1c2cc(C=O)sc2c2sc3c(sc4c5sc(C=O)cc5n(CCCCCC)c43)c21

SMILES: c1ccc(-c2nnc(-c3cc(-c4nnc(-c5ccccc5)o4)c(-n4c5ccccc5c5ccccc54)cc3-n3c4ccccc4c4ccccc43)o2)cc1
emission maximum (in Cc1ccccc1): 439 nm
emission maximum (in O=P(c1ccccc1)(c1ccccc1)c1ccccc1Oc1ccccc1P(=O)(c1ccccc1)c1ccccc1): 459 nm

SMILES: c1ccc(-c2nc(-c3ccccc3)nc(-c3ccc(N4c5ccccc5C5(c6ccccc64)c4ccccc4C4(c6ccccc6-c6ccccc64)c4ccccc45)cc3)n2)cc1
emission maximum (in Cc1ccccc1): 475.42 nm

emission maximum (in ClC(Cl)Cl): 525 nm
SMILES: N#CC1=CC(c2ccccc2)=CC(C#N)=P1(c1ccccc1)c1ccccc1

emission maximum (in C1CCOC1): 546 nm
emission maximum (in CCCCCC): 441 nm
emission maximum (in ClC(Cl)Cl): 495 nm
emission maximum (in ClCCl): 563 nm
SMILES: O=C1c2cccc3c(-n4c5ccccc5c5ccccc54)ccc(c23)C(=O)N1C1CCCCC1

emission maximum (in C1CCCCC1): 407 nm
SMILES: CCCC1(CCC)c2cc(-c3ccc4c(c3)C(CCC)(CCC)c3cc(-c5ccc6c(c5)C(CCC)(CCC)c5cc(C(C)(C)CC)ccc5-6)ccc3-4)ccc2-c2ccc(-c3ccc4c(c3)C(CCC)(CCC)c3cc(C(C)(C)CC)ccc3-4)cc21

SMILES: Cc1cc(C)c2c(c1)c1cc(C)cc(C)c1n2-c1ccc2c(c1)Sc1cc3c(cc1B2c1c(C(C)C)cc(C(C)C)cc1C(C)C)B(c1c(C(C)C)cc(C(C)C)cc1C(C)C)c1ccccc1S3
emission maximum (in Cc1ccccc1): 465 nm
emission maximum (in O=P(c1ccccc1)(c1ccccc1)c1ccc2oc3ccc(P(=O)(c4ccccc4)c4ccccc4)cc3c2c1): 483 nm

emission maximum (in CO): 613 nm
SMILES: Cc1ccc(C2=C3C=CC(Nc4ccccc4)=[N+]3[B-](F)(F)n3c(Nc4ccccc4)ccc32)cc1

emission maximum (in ClCCl): 744 nm
SMILES: C#Cc1ccc(-c2c3nc(c(-c4ccc(C#C)cc4)c4ccc([nH]4)c(-c4cc(C(C)(C)C)cc(C(C)(C)C)c4)c4cc(c(-c5cc(C(C)(C)C)cc(C(C)(C)C)c5)c5ccc2[nH]5)C=N4)C=C3)cc1

emission maximum (in ClCCl): 465 nm
SMILES: CC(C)(C)c1cc2ccc3c(N(c4ccc(F)cc4)c4ccc(F)cc4)cc(N(c4ccc(F)cc4)c4ccc(F)cc4)c4ccc(c1)c2c34

emission maximum (in CCO): 465 nm
emission maximum (in ClC(Cl)Cl): 453 nm
SMILES: CCOc1ccc2c(-c3nc(-c4ccccc4F)no3)cc(=O)oc2c1

emission maximum (in C1CCOC1): 404 nm
SMILES: COC(=O)c1cc2c(cc3ccc4cccc5ccc2c3c45)[nH]1

SMILES: CC(C)(C)c1ccc2c(c1)sc1[n+]2[B-](F)(F)n2c(c3cccc4cccc2c43)=N1
emission maximum (in C1CCOC1): 504 nm
emission maximum (in CC#N): 502 nm
emission maximum (in CCCCCC): 504 nm
emission maximum (in Cc1ccccc1): 506 nm
emission maximum (in ClCCl): 534 nm

emission maximum (in c1ccccc1): 424 nm
SMILES: Cc1nc2c(ccc3ccccc32)oc1=O

emission maximum (in CC#N): 446 nm
emission maximum (in CCCCCC): 390 nm
SMILES: Nc1ccc(/C=C/c2cccnc2)cc1

emission maximum (in ClCCl): 716 nm
SMILES: COC(=O)c1ccc(C2=C3C=c4sc(-c5cccs5)cc4=[N+]3[B-](F)(F)n3c2cc2sc(-c4cccs4)cc23)cc1

emission maximum (in ClC(Cl)Cl): 472 nm
emission maximum (in O): 460 nm
SMILES: C/C=C/C1=NC(=C\c2ccc(O)cc2)/C(=O)N1C

emission maximum (in CC#N): 579.08 nm
SMILES: Cn1ccc(-c2nc3ccccc3nc2/C=C/N2CCCC2)c1

emission maximum (in ClC(Cl)Cl): 419 nm
SMILES: CN(C)c1ccc(-c2ccc(-c3cc(-c4ccccc4)c(-c4ccccc4)c(-c4ccccc4)c3-c3ccccc3)s2)cc1

emission maximum (in ClC(Cl)Cl): 637 nm
SMILES: CCCN1c2ccccc2Sc2cc(/C=C\c3cc(=O)oc4ccc(C)cc34)ccc21

emission maximum (in ClC(Cl)Cl): 516.5 nm
SMILES: CC1=CC(C)=[N+]2C1=C(c1ccc(I)cc1)c1c(C)cc(C)n1[B-]2(Oc1ccc([N+](=O)[O-])cc1)Oc1ccc([N+](=O)[O-])cc1

SMILES: CCC1(CC)c2cc(C=C(C#N)C#N)ccc2-c2ccc(N(C)C)cc21
emission maximum (in C1CCCCC1): 528 nm
emission maximum (in CC#N): 688 nm
emission maximum (in CCO): 677 nm
emission maximum (in CCOCC): 579 nm
emission maximum (in CS(C)=O): 711 nm
emission maximum (in ClCCl): 631 nm
emission maximum (in c1ccccc1): 560 nm

emission maximum (in ClC(Cl)Cl): 491 nm
SMILES: N#CC1=CC=CC(C#N)=P1(c1ccccc1)c1ccccc1

emission maximum (in ClCCl): 635 nm
SMILES: CN(C)c1ccc(-c2cccc3nsnc23)cc1

emission maximum (in CC#N): 523 nm
emission maximum (in ClCCl): 491 nm
SMILES: Cc1cc(O)c(C(=O)/C=C/c2cccc(O)c2)c(=O)o1

emission maximum (in C1CCOC1): 446 nm
SMILES: F[B-]1(F)OC(c2ccccc2)=C(c2ccccc2)c2sc3ccccc3[n+]21

SMILES: Cc1ccc(C2=C3C=CC(/C=C/c4ccccc4)=[N+]3[B-](F)(F)n3c(/C=C/c4ccccc4)ccc32)cc1
emission maximum (in C1CCCCC1): 642 nm
emission maximum (in C1CCOC1): 645 nm
emission maximum (in C1COCCO1): 646 nm
emission maximum (in CCOC(C)=O): 641 nm
emission maximum (in CO): 639 nm
emission maximum (in Cc1ccccc1): 649 nm
emission maximum (in ClC(Cl)Cl): 647 nm

emission maximum (in CC1CCCCC1): 445 nm
SMILES: CC(C)(C)c1ccc2cc3c4cccc5cccc(c6cc(C(C)(C)C)cc(c2c1)c63)c54

SMILES: COc1ccc2c3c(cccc13)C(=O)c1ccccc1-2
emission maximum (in CC#N): 526.87 nm
emission maximum (in CC(C)=O): 520.02 nm
emission maximum (in CC(C)O): 541.13 nm
emission maximum (in CCCCOCCCC): 487.09 nm
emission maximum (in CCOC(C)=O): 506.07 nm
emission maximum (in CCOCC): 498.01 nm
emission maximum (in CO): 560.85 nm
emission maximum (in Cc1ccccc1): 500 nm
emission maximum (in Clc1ccccc1): 507.87 nm
emission maximum (in N#Cc1ccccc1): 520.02 nm
emission maximum (in O=C1CCCCC1): 520.02 nm

emission maximum (in ClC(Cl)Cl): 715 nm
emission maximum (in ClCCl): 715 nm
SMILES: COc1ccc(C2=[N+]3C(=Nc4c(-c5ccccc5)cc(-c5ccc(OC)cc5)n4[B-]3(F)F)C(c3ccccc3)=C2)cc1

emission maximum (in ClC(Cl)Cl): 524 nm
SMILES: CCOC(CN1C(=O)C2=C(c3ccsc3)N(CC(OCC)OCC)C(=O)C2=C1c1ccsc1)OCC

emission maximum (in ClCCl): 388 nm
SMILES: CC(C)(C)NC(=O)c1ccc(Br)c2ccc3c4ccccc4c4ccccc4c3c12

emission maximum (in CC#N): 387 nm
emission maximum (in CO): 386.5 nm
SMILES: c1ccc(-c2nc(-c3ccccc3)c(-c3ccccc3)[nH]2)cc1

emission maximum (in CC1CCCO1): 468 nm
SMILES: CCCCCCOc1cc2cc(=O)oc3ccc4cccc1c4c23

emission maximum (in ClCCl): 478 nm
SMILES: CCN(CC)c1ccc2cc(-c3ccc(-c4ccc(-c5cc6ccccc6oc5=O)cc4)cc3)c(=O)oc2c1

emission maximum (in C1CCOC1): 502 nm
emission maximum (in CC#N): 523 nm
emission maximum (in CCO): 515 nm
emission maximum (in CCOC(C)=O): 502 nm
emission maximum (in CN(C)C=O): 524 nm
emission maximum (in ClCCl): 518 nm
emission maximum (in c1ccccc1): 485 nm
SMILES: O=C(c1ccc(N(c2ccccc2)c2ccccc2)cc1)[C@H]1[C@H](c2ccc(F)cc2)C[C@](O)(c2ccccn2)C[C@]1(O)c1ccccn1

SMILES: CCCC1=Cc2nc1ccc1[nH]c(cc1CCC)c1nc(c(N)cc3[nH]c2cc3CCC)C(CCC)=C1
emission maximum (in Cc1ccccc1): 729 nm

SMILES: Fc1c(F)c(-n2c3ccccc3c3ccccc32)c(F)c(F)c1/C=C/C(=C(c1ccccc1)c1ccccc1)c1ccccc1
emission maximum (in Cc1ccccc1): 445 nm

emission maximum (in ClCCl): 494 nm
SMILES: CCCc1ccc(C#Cc2cc(C#Cc3ccc(CCC)cc3)c3ccc4c(C#Cc5ccc(CCC)cc5)cc(C#Cc5ccc(CCC)cc5)c5ccc2c3c54)cc1

emission maximum (in C1COCCO1): 375 nm
SMILES: c1ccc(-c2ccc(-c3ccc(-c4cc(-c5ccc(-c6ccc(-c7ccccc7)cc6)cc5)cc(-c5ccc(-c6ccc(-c7ccccc7)cc6)cc5)c4)cc3)cc2)cc1

SMILES: N#Cc1c(-n2c3ccccc3c3ccccc32)c(C#N)c(-n2c3ccccc3c3ccccc32)c(-n2c3ccccc3c3ccccc32)c1-n1c2ccccc2c2ccccc21
emission maximum (in Cc1ccccc1): 507 nm

emission maximum (in ClC(Cl)Cl): 414.94 nm
SMILES: CCCCCCn1c2cc(/C=C/c3ccccc3)ccc2c2ccc(/C=C/c3ccccc3)cc21

SMILES: N#Cc1cc(C#N)c(-c2cc(-n3c4ccccc4c4ccccc43)cc(-n3c4ccccc4c4ccccc43)c2)cc1-c1cc(-n2c3ccccc3c3ccccc32)cc(-n2c3ccccc3c3ccccc32)c1
emission maximum (in Cc1ccccc1): 372 nm

emission maximum (in ClCCl): 422 nm
SMILES: COc1cc2c(cc1OC)C1=C[C@H](c3ccccc3)C3(C(C(=O)O[C@@H]4C[C@H]5CC[C@@H]4C5)=C(C(=O)O[C@H]4C[C@@H]5CC[C@H]4C5)N1CC2)c1ccccc1-c1ccccc13

emission maximum (in ClC(Cl)Cl): 449 nm
SMILES: COc1ccc(C2CC(=O)Oc3c2c2nc4ccccc4nc2c2ccccc32)cc1 (centres undefined)

SMILES: COc1ccc2c(c1)c1cc(OC)ccc1n2-c1ccc2c(c1)-c1cc(-n3c4ccc(OC)cc4c4cc(OC)ccc43)ccc1P2(=O)c1ccccc1
emission maximum (in Cc1ccccc1): 476 nm
emission maximum (in c1ccc2c(c1)c1ccccc1n2-c1ccc(-c2ccc(-n3c4ccccc4c4ccccc43)cc2)cc1): 490 nm

emission maximum (in C1CCOC1): 462 nm
SMILES: CCCCCOc1ccc2c(c1)c1ccc3cccc4c5cccc6oc(=O)c2c(c65)c1c34

emission maximum (in ClC(Cl)Cl): 422 nm
SMILES: c1ccc2c(c1)Oc1ccccc1C21c2cc(-c3ccc4ccc5cccc6ccc3c4c56)ccc2-c2ccc(-c3ccc4ccc5cccc6ccc3c4c56)cc21

emission maximum (in CS(C)=O): 446 nm
SMILES: N#CC1=C(N)n2c(=O)c3ccccc3c(=O)n2C1c1cccs1 (centres undefined)

emission maximum (in CCCCCC): 577 nm
emission maximum (in ClCCl): 609 nm
SMILES: CC(C)[Si](C#Cc1c2ccccc2c(C#C[Si](C(C)C)(C(C)C)C(C)C)c2nc3ccccc3nc12)(C(C)C)C(C)C

emission maximum (in CCO): 441 nm
SMILES: CCOC(=O)c1cc(C(=O)OCC)c2cc(OC)ccc2n1

emission maximum (in C1CCOC1): 405 nm
SMILES: C1=Cc2ccccc2C(=Cc2ccc(-c3ccc(C=C4c5ccccc5C=Cc5ccccc54)cc3)cc2)c2ccccc21
